Common to all, as to type: in vitro ADME
The target in series [1] is T1, OATP1B1 (Homo sapiens, UniProt Q9Y6L6).
T1 construct: host or cells: HEK293
T1 sequence (Q9Y6L6 1-691): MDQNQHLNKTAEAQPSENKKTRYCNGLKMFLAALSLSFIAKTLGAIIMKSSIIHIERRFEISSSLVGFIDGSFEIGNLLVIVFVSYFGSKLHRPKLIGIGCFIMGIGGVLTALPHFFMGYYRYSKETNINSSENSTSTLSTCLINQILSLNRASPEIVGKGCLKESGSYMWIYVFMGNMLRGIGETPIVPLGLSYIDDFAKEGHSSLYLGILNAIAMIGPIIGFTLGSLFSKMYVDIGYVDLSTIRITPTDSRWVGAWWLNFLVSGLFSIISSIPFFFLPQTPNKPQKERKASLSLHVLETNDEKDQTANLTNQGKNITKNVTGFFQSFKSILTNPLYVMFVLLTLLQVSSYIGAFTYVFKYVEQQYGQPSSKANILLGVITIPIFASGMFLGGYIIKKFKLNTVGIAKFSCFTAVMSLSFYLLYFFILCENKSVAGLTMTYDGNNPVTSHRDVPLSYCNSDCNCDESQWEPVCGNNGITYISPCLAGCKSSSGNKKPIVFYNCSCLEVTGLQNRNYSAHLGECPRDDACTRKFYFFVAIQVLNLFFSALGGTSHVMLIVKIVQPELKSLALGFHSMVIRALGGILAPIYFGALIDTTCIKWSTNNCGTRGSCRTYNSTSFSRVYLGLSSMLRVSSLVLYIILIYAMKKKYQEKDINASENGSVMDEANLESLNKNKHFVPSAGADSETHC
The experiment in a line: Inhibition of prototypical substrate (E17βG) uptake by TCMCB07 in HEK293/OATP1B1 cells.
Experimental: (§1) Cells were then washed three times × 1.0 mL each with pre‐warmed Hank's Balanced Salt Solution (HBSS) buffer. A 0.5 mL aliquot of uptake buffer [HBSS plus 10 mM 4‐(2‐hydroxyethyl)‐1‐piperazineethanesulfonic acid (HEPES), pH 7.4], containing the radiolabelled prototypical substrate and mannitol, was then incubated for various times up to 60 min to determine the optimal incubation time for subsequent experiments (i.e. time of sampling during linear uptake conditions). At the designated times, 1.0 mL of ice‐cold HBSS buffer was added to stop uptake after which the cells were rinsed three times with 1.0 mL with ice‐cold HBSS. Hyamine hydroxide (0.33 mL) was then added to each well to lyse the cells. The cells were transferred into a scintillation vial and mixed with 6.0 mL of cytosine scintillation cocktail. Radioactivity of the solubilized cells was determined with a dual‐channel liquid scintillation counter (Beckman LS 6000; Beckman Coulter Inc., Fullerton, CA) and the protein quantified by a bicinchoninic acid protein assay kit (Pierce Biotechnology; Rockford, IL).

Series [2] concerns the target T2, OCT2 (Homo sapiens, UniProt O15244).
T2 construct: host or cells: HEK293
T2 sequence (O15244 1-555): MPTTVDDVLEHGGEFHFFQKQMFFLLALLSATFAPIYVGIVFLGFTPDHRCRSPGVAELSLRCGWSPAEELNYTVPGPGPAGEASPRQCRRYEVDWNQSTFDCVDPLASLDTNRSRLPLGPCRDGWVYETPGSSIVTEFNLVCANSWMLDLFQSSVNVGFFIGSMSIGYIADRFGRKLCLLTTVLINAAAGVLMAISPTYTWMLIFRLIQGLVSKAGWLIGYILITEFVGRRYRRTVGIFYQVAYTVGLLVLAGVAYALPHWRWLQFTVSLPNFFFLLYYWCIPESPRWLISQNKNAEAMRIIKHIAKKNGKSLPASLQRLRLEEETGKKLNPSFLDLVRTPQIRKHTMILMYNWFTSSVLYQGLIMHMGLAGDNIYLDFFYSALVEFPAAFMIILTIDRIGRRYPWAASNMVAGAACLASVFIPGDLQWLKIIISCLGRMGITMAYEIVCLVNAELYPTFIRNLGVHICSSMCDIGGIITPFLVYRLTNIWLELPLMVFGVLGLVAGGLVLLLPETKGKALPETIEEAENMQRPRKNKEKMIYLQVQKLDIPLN
The experiment in a line: Inhibition of prototypical substrate (MPP+) uptake by TCMCB07 in HEK293/OCT2 cells.
Experimental: as §1

Series [3] deals with T3, BCRP (ABCG2) (Homo sapiens, UniProt Q9UNQ0).
T3 construct: host or cells: MDCKII
T3 sequence (Q9UNQ0 1-655): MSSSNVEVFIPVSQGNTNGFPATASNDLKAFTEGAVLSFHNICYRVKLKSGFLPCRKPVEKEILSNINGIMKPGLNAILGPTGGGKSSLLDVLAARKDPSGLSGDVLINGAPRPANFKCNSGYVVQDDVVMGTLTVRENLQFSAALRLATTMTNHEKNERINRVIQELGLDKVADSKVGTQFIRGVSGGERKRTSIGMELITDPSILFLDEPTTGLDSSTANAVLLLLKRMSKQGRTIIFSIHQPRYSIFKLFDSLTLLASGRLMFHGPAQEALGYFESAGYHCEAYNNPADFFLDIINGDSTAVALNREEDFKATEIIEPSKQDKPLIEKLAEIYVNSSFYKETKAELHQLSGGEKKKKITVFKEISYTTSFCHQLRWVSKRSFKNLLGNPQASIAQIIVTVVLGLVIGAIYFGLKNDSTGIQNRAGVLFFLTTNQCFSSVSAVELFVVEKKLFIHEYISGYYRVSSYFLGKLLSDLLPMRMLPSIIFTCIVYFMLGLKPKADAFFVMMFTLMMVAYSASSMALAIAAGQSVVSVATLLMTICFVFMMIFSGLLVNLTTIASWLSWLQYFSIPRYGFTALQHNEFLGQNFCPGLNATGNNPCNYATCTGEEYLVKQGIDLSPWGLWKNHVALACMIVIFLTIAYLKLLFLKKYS
The experiment in a line: Transepithelial transport of rosuvastatin (±TCMCB07) in MDCKII/BCRP cells. The method, then:
Cells were then washed three times, each with 0.5 mL pre‐warmed HBSS buffer. […] The cells were then incubated for various times up to 60 min. […] At the designated times, 15 μL of apical buffer and 50 μL of basolateral buffer were sampled. Once all the samples were collected, 0.5 mL of ice‐cold HBSS buffer was added to the well to stop transport after which the cells were rinsed three times with 0.5 mL of ice‐cold HBSS. The filters with monolayers were then detached from the chamber and placed in a scintillation vial, and the cells were lysed with 0.33 mL hyamine hydroxide.
The permeability of digoxin and rosuvastatin (prototypical substrates for MDR1 and BCRP, respectively) was determined by the following ^18 : (4) Papp=CR·VR/CD^o·A·∆Δt, where Papp is the apparent permeability, CR is the concentration of substrate in the receiver chamber, CD^o is the concentration of substrate in the donor chamber at time zero, VR is the volume of buffer in the receiver chamber, A is the surface area of the insert filter membrane, and ∆t is the time over which permeability is measured.
A similar analysis can be performed for rosuvastatin by substituting ERRos for ERDig and ERRos+T for ERDig+T in Eqn 6.

Setting [4] is: in the presence of 500 μM TCMCB07, increased by.

Bridge positions count the residues as written; N and C are the ends. Square brackets hold non-standard residues; d marks the D form. Peptide text beside a SMILES is read from it. d2Nal = N[C@H](Cc1ccc2ccccc2c1)C(=O)O; Nle = CCCC[C@H](N)C(=O)O

As for `CCCC[C@H](NC(C)=O)C(=O)N[C@H]1CC(=O)NCCCC[C@@H](C(=O)N[C@@H](C(=O)N2CCC[C@@H]2C(N)=O)C(C)C)NC(=O)[C@H](Cc2c[nH]c3ccccc23)NC(=O)[C@H](CCCN=C(N)N)NC(=O)[C@@H](Cc2ccc3ccccc3c2)NC(=O)[C@@H]2CCCN2C1=O` [TCMCB07, Ac‐Nle‐c[Asp‐Pro‐dNal2′‐Arg‐Trp‐Lys]‐dVal‐dPro‐NH2] (Ac-[Nle]DP[d2Nal]RWK[dV][dP]-NH2; lactam 2-7), the IC50 was 6.8 ± 1 µM in series [1] and 1170 µM in series [2]. Further, in series [1] (slope factor n of Eqn 1, OATP1B1, substrate E17βG), the Slope factor came out at 1.0 ± 0.1. The “% Change ER of rosuvastatin, 100·(1−ERRos+T/ERRos)” value in series [3] (MDCKII/BCRP, 500 μM TCMCB07, negative = efflux ratio increased) is listed as −32%. Moreover, the “increase of BCRP‐mediated permeability of rosuvastatin, A to B direction” value in series [3] (setting [4]) amounted to 5%. For the same molecule, the “increase of BCRP‐mediated permeability of rosuvastatin, B to A direction” value in series [3] (setting [4]) amounted to 37%. Also, the “effect on BCRP‐mediated permeability of prototypical substrate” value in series [3] (transfected cells, 500 μM TCMCB07) is recorded as “did not affect”.

Usually IC50 stands for the concentration that gives 50% inhibition. A higher IC50 goes with weaker potency in that assay.
